Laboratory results: US20040072694A1, “Method to inhibit ethylene responses in plants” (priority 2002, published 2004)

Assays:
[1] = tested on: Patio variety tomato seedlings; test: Tomato Epinasty Test, volatile gas treatment; format: in vivo; conditions: applied as a gas at 1000 ppm; ethylene 10 ppm v/v after four hours, scored sixteen hours later
Experimental: Objective: The test procedure is designed to determine the ability of an experimental compound to block the epinastic growth response induced by ethylene in tomato plants when the experimental compound is administered either as a volatile gas or as a component of a spray solution. Treatment chambers are of an appropriate size for the test plants and are airtight. Each is fitted with a reusable septum to be used for injection of ethylene. Test plants are Patio variety tomato seedlings planted two plants per three inch square plastic pot. Volatile gas treatment entails placing two pots of Patio var. tomatoes into a polystyrene 4.8L volume treatment chamber along with one-half (upper or lower section) of a 50×9 mm plastic Petri dish containing a Gelman filter pad. The appropriate amount of experimental compound, dissolved in 1.0 ml acetone, is pipetted onto the filter pad and the chamber immediately sealed. Four hours later ethylene gas equal to 10 ppm v/v final concentration is injected into the sealed chamber. Sixteen hours later the chambers are opened in an exhaust hood, allowed to air and the plants scored visually for the degree of protection against ethylene-induced epinasty conferred by the experimental compound when compared to ethylene treated and untreated controls on a scale of 0 to 10. A rating of 10 means complete protection. […]

ethylene receptors = test: Banana ripening protection from ethylene; format: in vivo; conditions: 24 hours of exposure in 3-liter jar, then 333 microliters per liter of ethylene for 12-15 hours; banana peels
Experimental: Compounds which block the ethylene receptors can prevent bananas from ripening. Treatment of bananas with 30 nl/l of Compound 1 protected banana peels from the effects of ethylene. The bananas were treated using the following general procedure:
An ether solution of a known amount of the active compound was placed on filter paper in a 3-liter jar. The amount of ether used was without effect when applied alone on a banana contained in a 3-liter jar. The jar was sealed and the banana was removed after 24 hours of exposure. The banana was then treated with 333 microliters per liter of ethylene in a 3-liter jar for 12-15 hours. It was then observed for ripening. The minimum concentration that protected the banana was determined.

Compound | rating of protection against ethylene-induced epinasty (scale of 0 to 10; 10 means complete protection) [1] | minimum concentration that protected the banana (ethylene receptors) [nl/l]
OCCC1=CC1 [Compound 2, 1-(2-Hydroxyethyl)-cyclopropene] | 10 | 
OCC1=CC1 [Compound 1, 1-Hydroxymethylcyclopropene] |  | 30
